Laboratory results as given in US20260335341A1, “METHODS FOR TREATING PAEDIATRIC NEUROLOGICAL DISORDERS” (Neurotech International Limited, priority 2022, published 2026).
Where two headings read alike, the source gives them in different places.

Legend:
[1] = Stability of NTI164 oil formulation at room temperature (UPLC)
TNF-ALPHA = assay: TNF-alpha in microglial culture media, psylocibin combination (Example 9); format: cell-based; settings: PBS control 1.00, positive activation I&I 10.67
Description: Microglia media harvested following treatment initiation was centrifuged briefly to remove particulates (300 g for 10 min). The level of TNFα in the microglial culture media was measured using a Bio-Plex 200 with a 96-well magnetic plate assay according to the manufacturer's instructions (Bio-Rad). The samples were run in duplicate that were averaged for analysis. At least three samples per group were run.

[2] = NTI164 oil, room temperature, Day 14

| SMILES | Cannabinoid content of NTI164, Day 14 [1] [mg/mL] | Cannabinoid content of NTI164, Day 0 ([1]; NTI164 oil, room temperature) [mg/mL] | Cannabinoid content of NTI164, Day 2 ([1]; NTI164 oil, room temperature) [mg/mL] | Cannabinoid content of NTI164, Day 7 ([1]; NTI164 oil, room temperature) [mg/mL] | Cannabinoid content of NTI164, Day 28 ([1]; NTI164 oil, room temperature) [mg/mL] | Cannabinoid content of NTI164, Week 5 ([1]; NTI164 oil, room temperature) [mg/mL] | Cannabinoid content of NTI164, Week 6 ([1]; NTI164 oil, room temperature) [mg/mL] | Cannabinoid content of NTI164, Week 32 ([1]; NTI164 oil, room temperature) [mg/mL] | Cannabinoid content of NTI164, Day 14 [1, 2] [mg/mL] | TNF-alpha assessment result (TNF-ALPHA; 1 ug/ml) | TNF-alpha assessment result (TNF-ALPHA; 5 ug/ml) |
| --- | --- | --- | --- | --- | --- | --- | --- | --- | --- | --- | --- |
| CCCCCc1cc2c(c(O)c1C(=O)O)[C@@H]1C=C(C)CC[C@H]1C(C)(C)O2 [(Tetrahydrocannabinolic acid) (D9-THCA), Delta-9-tetrahydrocannabinolic acid] | 0.69 | 0.66 | 0.72 | 0.64 | 0.36 | 0.79 | 0.73 | <0.1 |  |  |  |
| CCCCCc1cc(O)c2c(c1)OC(C)(CCC=C(C)C)C=C2 (stereo not shown) [Cannabichrome(CBC), Cannabichromene] |  | 1.23 | 1.19 | 1.34 | 1.27 | 1.20 | 1.15 | 1.22 | 1.22 |  |  |
| C=C(C)[C@@H]1CCC(C)=C[C@H]1c1c(O)cc(CCCCC)c(C(=O)O)c1O [Cannabidiol acid (CBD-A), Cannabidiol acid] |  | 48.16 | 48.19 | 48.62 | 47.12 | 48.35 | 47.56 | 47.01 | 48.09 |  |  |
| C=C(C)[C@@H]1CCC(C)=C[C@H]1c1c(O)cc(CCC)cc1O [Cannabidivarin (CBDV), Cannabidivarin] |  | <0.1 | <0.1 | <0.1 | <0.1 | 0.10 | <0.1 | 0.13 | <0.1 |  |  |
| CCCCCc1cc(O)c(C/C=C(\C)CCC=C(C)C)c(O)c1 [Cannabigerol (CBG), Cannabigerol] |  | 5.21 | 5.23 | 5.14 | 5.1 | 5.30 | 5.28 | 5.12 | 5.1 |  |  |
| CCCCCc1cc(O)c(C/C=C(\C)CCC=C(C)C)c(O)c1C(=O)O [Cannabigerol Acid(CBG-A), Cannabigerolic acid] |  | 1.07 | 1.18 | 1.20 | 0.81 | 1.08 | 1.00 | 1.05 | 1.19 |  |  |
| CCCCCc1cc(O)c2c(c1)OC(C)(C)c1ccc(C)cc1-2 [Cannabinol (CBN), Cannabinol] | 2.33 | 2.32 | 2.54 | 2.48 | 2.56 | 2.22 | 2.27 | 2.21 |  |  |  |
| CCCCCc1cc(O)c2c(c1)OC(C)(C)C1CC=C(C)CC21 (stereo not shown) [DELTA-8-THC (D8-THC), Delta-8-tetrahydrocannabinol] | <0.1 | <0.1 | <0.1 | <0.1 | <0.1 | <0.1 | <0.1 | <0.1 |  |  |  |
| CN(C)CCc1c[nH]c2cccc(OP(=O)(O)O)c12 [SubP (Psylocibin), Psylocibin] |  |  |  |  |  |  |  |  |  | 4.87 | 9.17 |
| CCCCCc1cc(O)c2c(c1)OC(C)(C)[C@@H]1CCC(C)=C[C@@H]21 [Tetrahydrocannabinol (D9-THC), Delta-9-tetrahydrocannabinol] |  | <0.1 | <0.1 | <0.1 | <0.1 | 0.14 | <0.1 | 0.11 | <0.1 |  |  |
| CCCc1cc(O)c2c(c1)OC(C)(C)[C@@H]1CCC(C)=C[C@@H]21 [Tetrahydrocannabivarin (THCV), Tetrahydrocannabivarin] | <0.1 | <0.1 | <0.1 | <0.1 | <0.1 | <0.1 | <0.1 | <0.1 |  |  |  |
